Results taken from publication PMC11855827, “High-Throughput Screening of Five Compound Libraries for Anthelmintic Activity and Toxicity Leads to the Discovery of Two Flavonoid Compounds” (International Journal of Molecular Sciences, 2025).
Like-named read-outs stand apart in the source and are kept apart here. Marks after values point to notes of the source that are not given here. Each block holds one compound with its values, some of them ahead of it.

What was measured:
[1] = system: H. contortus susceptible strain; test: Egg hatch inhibition (EHI), ovicidal effect; set-up: species or system Haemonchus contortus; conditions: susceptible strain, 100 μM, NE = Not Effective at 100 μM, control thiabendazole 0.1 µg/mL
[2] = system: C. elegans; test: C. elegans motility dose-response (DR) assay; set-up: species or system Caenorhabditis elegans
[3] = system: T. circumcincta resistant strain; test: Egg hatch inhibition (EHI), ovicidal effect; set-up: species or system Teladorsagia circumcincta; conditions: resistant strain, 100 μM; NE = Not Effective at 100 μM; control thiabendazole 0.1 µg/mL
[4] = system: C. elegans
[5] = system: T. circumcincta resistant strain; test: Larval migration inhibition test (LMIT); set-up: species or system Teladorsagia circumcincta; conditions: for inhibition at 100 µM: Teladorsagia circumcincta, 24 h, read-out: T. circumcincta LMIT (%)
Excerpt: (§1) Eggs and third instar larvae (L3) of H. contortus from a field strain and a resistant strain of T. circumcincta were used in the current trials. These parasitic forms were obtained from fresh feces of Merino and Churra sheep experimentally infected at the experimental farm of the Instituto de Ganadería de Montaña (IGM, CSIC, Gruyeros, León, Spain) and purified according to previously described methods. Briefly, eggs were taken from fresh feces, washed, centrifuged and floated with a saturated sodium chloride solution, then concentrated, counted and used in the assays. L3 were obtained by culturing feces at 25 °C for 13 d. L3 larvae were […] in 0.5% sodium hypochlorite solution for 10 min at room temperature and washed to avoid excess salt. After washing, they were concentrated and counted for use.
(§2) The viability of H. contortus larvae was assessed by the larval migration inhibition test (LMIT) according to previously described methods. Briefly, 700 µL aliquots containing 500–600 L3 were prepared for each compound. […] After a 24 h incubation at 28 °C, the compound was removed by three washes, leaving a final volume of 1400 µL. After the washes, three 400 µL aliquots were taken from each tube and transferred to a 96-well plate with a MultiScreen mesh filter. The plates were incubated for a further 24 h at 28 °C to allow the motile L3 to pass through the 20 µm mesh for counting. Then, the number of larvae present in each well was counted to determine percentage of larval migration for each compound: % Larval migration=number of larvae migrating in compound wells/number of larvae migrating in negative control×100
(§3) For the larvae, ivermectin at 8.75 µg/mL and DMSO 0.5% (v/v) were used as controls and at least 12 replicates were performed. […] EC50 were determined by plotting the percentage of viability of the L1 against the concentration of each compound, using the nonlinear fit analysis provided by the SigmaPlot® 10.1.

[6] = system: H. contortus susceptible strain; test: Larval migration inhibition test (LMIT); set-up: species or system Haemonchus contortus; conditions: L3, 100 μM, NE = Not Effective at 100 μM, control ivermectin 8.75 µg/mL
Excerpt: as §1, §2, §3

[7] = system: C. elegans; test: microbe, parasite or virus in culture; conditions: Caenorhabditis elegans
[8] = system: C. elegans; conditions: read-out: EC50 found in the literature; cited from earlier work
[9] = read-out: EC50 (μM) at 24 h, C. elegans motility, DR assay
[10] = C. elegans L4 motility, 110 μM, 0 h, mean ± SD of four experiments
[11] = C. elegans L4 motility, 110 μM, 24 h, mean ± SD of four experiments
[12] = resistant strain, L3, 100 μM, NE = Not Effective at 100 μM, control ivermectin 8.75 µg/mL
[13] = Caenorhabditis elegans, 24 h, read-out: EC50 (μM) at 24 h, C. elegans motility, DR assay, 24 h
[14] = 0 h, read-out: Inhibition (%) 110 μM (0 h), C. elegans L4 motility, 110 μM, 0 h, mean ± SD of four experiments
[15] = 0 h, read-out: Percentage of motility inhibition 0 h, Table S2, C. elegans SS assay, 110 μM, 0 h, averages of 4 data points
[16] = 24 h, read-out: Inhibition (%) 110 μM (24 h), C. elegans L4 motility, 110 μM, 24 h, mean ± SD of four experiments
[17] = 24 h, read-out: Percentage of motility inhibition 24 h, Table S2, C. elegans SS assay, 110 μM, 24 h, averages of 4 data points

- EC50 [2, 9]: 45.4 ± 5.1 µM
Compound: CC1(C)[C@H](OC(=O)c2ccccc2)CC[C@]2(C)C3=C([C@@H](O)C[C@@H]12)[C@@]1(C)CC[C@@]2(C)CC[C@@](C)(COC(=O)c4ccccc4)C[C@H]2[C@]1(C)CC3 [3,29-dibenzoyl rarounitriol]
- H. contortus EHI (%) [1]: 0.0%
- T. circumcincta EHI (%) [3]: 0.0%
- Inhibition (%) 110 μM (0 h) [4, 10]: 40 ± 22%
- Inhibition (%) 110 μM (24 h) [4, 11]: 71 ± 19%
- T. circumcincta LMIT (%) [5, 12]: 0.0 * %
- H. contortus LMIT (%) [6]: 0.0%

- EC50 [2, 13]: > 60 µM
Compound: Cc1cc(O)cc(C)c1Cl [Chloroxylenol, reference compound]
- inhibition at 110 µM [7, 14]: 100%
- inhibition at 110 µM [7, 15]: 100%
- inhibition at 110 µM [7, 16]: 100%
- inhibition at 110 µM [7, 17]: 100%

Compound: C[C@@H]1CC[C@@]2(OC1)O[C@H]1C[C@H]3[C@@H]4CC=C5C[C@@H](O[C@@H]6O[C@H](CO)[C@@H](O[C@@H]7O[C@@H](C)[C@H](O)[C@@H](O)[C@H]7O)[C@H](O)[C@H]6O[C@@H]6O[C@@H](C)[C@H](O)[C@@H](O)[C@H]6O)CC[C@]5(C)[C@H]4CC[C@]3(C)[C@H]1[C@@H]2C [Dioscin]
- EC50 ([2]; Caenorhabditis elegans, read-out: EC50 (μM) at 24 h, C. elegans motility, DR assay): 37.8 ± 1.3 µM
- inhibition at 110 µM ([7]; 0 h, read-out: Inhibition (%) 110 μM (0 h)): 12 ± 1%
- inhibition at 110 µM ([7]; 24 h, read-out: Inhibition (%) 110 μM (24 h)): 79 ± 2%
- inhibition at 100 µM [5]: 0%
- inhibition at 100 µM ([6]; Haemonchus contortus, 24 h): 0%

- EC50 [2, 9]: 28.2 ± 1 µM
Compound: CCOc1ccc2nc3cc(N)ccc3c(N)c2c1 [Ethacridine lactate monohydrate, reference compound]
- H. contortus EHI (%) [1]: 54.8 ± 11.7%
- T. circumcincta EHI (%) [3]: 0.0%
- inhibition at 110 µM [7, 15]: 72%
- Inhibition (%) 110 μM (0 h) [4, 10]: 73 ± 17%
- Inhibition (%) 110 μM (24 h) [4, 11]: 89 ± 4%
- inhibition at 100 µM [5, 12]: 0%
- H. contortus LMIT (%) [6]: 0.0%

- EC50 [2, 13]: 50.1 ± 1 µM
Compound: CCOc1ccc2nc3cc(N)ccc3c(N)c2c1 [Ethacridine lactate, reference compound]
- inhibition at 100 µM ([1]; Haemonchus contortus): 55.8 ± 5.1%
- T. circumcincta EHI (%) [3]: 4.0 ± 1.5%
- inhibition at 110 µM [7, 14]: 66 ± 26%
- inhibition at 110 µM [7, 16]: 87 ± 6%
- H. contortus LMIT (%) [6]: 4.9 ± 2.2%

- EC50 [2, 13]: > 60 µM
Compound: CCc1c(Cl)c(O)c(Cl)c(O)c1C(=O)O[C@H]1[C@H](O)[C@H](OC)[C@H](OC/C2=C\C=C\C[C@H](O)/C(C)=C/[C@H](CC)[C@@H](O[C@@H]3OC(C)(C)[C@@H](OC(=O)C(C)C)[C@H](O)[C@@H]3O)/C(C)=C/C(C)=C/C[C@@H]([C@@H](C)O)OC2=O)O[C@@H]1C [Fidaxomicin, reference compound]
- inhibition at 110 µM [7, 14]: 82 ± 7%
- inhibition at 110 µM [7, 16]: 89 ± 1%
- inhibition at 110 µM [7, 17]: 88%

Compound: CN[C@H]1C[C@@H](N)[C@H](O)[C@@H](O[C@@H]2O[C@H](CO)[C@H](O)[C@@H]3OC4(O[C@H]23)O[C@H]([C@@H](N)CO)[C@H](O)[C@H](O)[C@H]4O)[C@@H]1O (some centres unmarked) [Hygromycin B, reference compound]
- EC50 [2, 9]: > 60 µM
- Inhibition (%) 110 μM (0 h) [4]: 67 ± 28%
- Inhibition (%) 110 μM (24 h) [4]: 89 ± 5%

- EC50 [2, 9]: 34.7 ± 1.6 µM
Compound: CC(C)=CCc1c(-c2ccc(O)cc2O)oc2c([C@H]3C=C(C)C[C@@H](c4ccc(O)cc4O)[C@@H]3C(=O)c3ccc(O)cc3O)c(O)cc(O)c2c1=O [Kuwanon G]
- H. contortus EHI (%) [1]: 9.4 ± 1.8%
- Inhibition (%) 110 μM (0 h) [4, 10]: 0 ± 0%
- Inhibition (%) 110 μM (24 h) [4, 11]: 74 ± 5%
- Percentage of motility inhibition 24 h ([4]; Table S2, C. elegans SS assay, 110 μM, 24 h, averages of 4 data points): 75%
- H. contortus LMIT (%) [6]: 0.0%

- EC50 [2, 13]: 1.91 µM
Compound: c1ccc([C@H]2CN3CCSC3=N2)cc1 [Levamisole, reference compound]
- EC50 [8]: 6.4 µM
- inhibition at 110 µM [7, 14]: 87 ± 10%
- inhibition at 110 µM [7, 16]: 61 ± 3%

- EC50 [2, 13]: 0.79 µM
Compound: CO/N=C1\C[C@]2(C[C@@H]3C[C@@H](C/C=C(\C)C[C@@H](C)/C=C/C=C4\CO[C@@H]5[C@H](O)C(C)=C[C@@H](C(=O)O3)[C@]45O)O2)O[C@H](/C(C)=C/C(C)C)[C@H]1C [Moxidectin, reference compound]
- EC50 [8]: 0.03 µM
- inhibition at 110 µM [7, 14]: 99 ± 1%
- inhibition at 110 µM [7, 16]: 85 ± 13%
- inhibition at 110 µM [7, 17]: 86%
